# Experimental data taken from article PMC5500233 (Peptides, 2016).
# Values joined by “and” are separate entries in the source; they are usually repeats but may differ in a detail not shown here. Equal entries are not always repeated. “Also recorded” adds a separate entry of the source.
# Legend:
# [1] = system: DPP 3; details: ref [2],[15]; cited from earlier work
# [2] = system: Ang-(1–7) peptidase, partially purified fraction from brain medulla; details: ref [15], cited from earlier work
# [3] = system: Ang-(1–7) RIA; details: as previously described; ref [27]; cited from earlier work
# [4] = system: HK-2 peptidase; details: ref [25]; cited from earlier work
# [5] = target: T1, human DPP 3 (Homo sapiens, UniProt Q9NY33); experiment: Metabolism of unlabeled Ang-; assay type: biochemical; details: 100 μM Ang-(1–7), 37 °C, HPLC-UV
# T1 sequence (Q9NY33 1-737): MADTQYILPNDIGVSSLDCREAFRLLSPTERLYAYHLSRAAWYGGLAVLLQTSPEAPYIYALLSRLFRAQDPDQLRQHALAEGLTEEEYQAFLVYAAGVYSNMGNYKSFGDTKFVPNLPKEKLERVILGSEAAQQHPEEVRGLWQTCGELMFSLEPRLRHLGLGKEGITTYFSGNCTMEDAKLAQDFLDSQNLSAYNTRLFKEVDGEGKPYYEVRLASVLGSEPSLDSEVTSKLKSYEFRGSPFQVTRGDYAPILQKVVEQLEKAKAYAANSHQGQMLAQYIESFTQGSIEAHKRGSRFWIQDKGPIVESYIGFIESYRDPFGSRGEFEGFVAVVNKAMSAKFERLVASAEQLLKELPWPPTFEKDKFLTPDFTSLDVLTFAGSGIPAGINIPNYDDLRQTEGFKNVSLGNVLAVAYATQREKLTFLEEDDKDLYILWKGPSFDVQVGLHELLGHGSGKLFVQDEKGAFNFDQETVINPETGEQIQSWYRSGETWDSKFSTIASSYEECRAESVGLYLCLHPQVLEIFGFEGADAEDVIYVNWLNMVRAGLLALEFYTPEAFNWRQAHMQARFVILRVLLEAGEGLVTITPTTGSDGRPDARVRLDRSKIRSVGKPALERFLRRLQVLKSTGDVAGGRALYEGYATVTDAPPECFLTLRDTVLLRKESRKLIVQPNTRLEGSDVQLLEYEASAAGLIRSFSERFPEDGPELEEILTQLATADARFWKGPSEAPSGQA
# [6] = target: T1, human DPP 3; experiment: Kinetic studies of Ang-; assay type: biochemical; details: 37 °C, n=3
# [7] = target: T1, human DPP 3; experiment: JMV-390 inhibition of ^125I-Ang-; assay type: biochemical; details: JMV-390, Fig. 3: 0.5 and 10 nM
# [8] = system: TOP expressed in the HK-2 cells; details: high dose of JMV-390; ref [25]; cited from earlier work
# [9] = system: HK-2 cells; experiment: Intracellular Ang-; assay type: cell-based, human
# [10] = system: DPP 3 activity in HK-2 cells; experiment: ^125I-Ang-; assay type: cell-based, human; details: for peptidase activity: mean±SEM, control 136±6
# [11] = target: Ang-(1–7) peptidase, partially purified fraction from brain medulla; details: JMV-390; brain medulla Ang-(1–7) peptidase; ref [15]; cited from earlier work
# [12] = system: purified Ang-(1–7) peptidase from HK-2 cells; experiment: JMV-390 inhibition of ^125I-Ang-; assay type: biochemical, human; details: JMV-390, Fig. 3: 0.5 and 10 nM
# [13] = target: Ang-(1–7) peptidase in renal tubules; details: JMV-390, ref [15],[25]; cited from earlier work
compound,measurement,setting,value
O=C(O)CN(CCN(CC(=O)O)CC(=O)O)CC(=O)O [EDTA],sensitivity of DPP 3 to thiol inhibitors and chelating agents,[1],unusual sensitivity
O=C(O)c1cc[c]([Hg][Cl])cc1 [PCMB],sensitivity of DPP 3 to thiol inhibitors and chelating agents,[1],unusual sensitivity
apelin 13,metabolism by enriched peptidase,[2],failed to metabolize
"bradykinin (RPPGFSPFR; Bradykinin; UniProt P01042 381-389, looked up)",metabolism by enriched peptidase,[2],failed to metabolize
neurotensin,metabolism by enriched peptidase,[2],failed to metabolize
"Ang-(2–7): angiotensin peptide recognized by the Ang-(1–7) RIA (RVYIHP; UniProt P01019 26-31, looked up, fragment)",recognition by Ang-(1–7) RIA,[3],recognizes
"[Abz-Asp^1, Tyr (NO2)^7]-Ang-(1–7)]",hydrolysis by HK-2 peptidase,[4],resistant
"Ang II: angiotensin peptide (DRVYIHPF; Angiotensin-2; UniProt P01019 25-32, looked up)",recognition by Ang-(1–7) RIA (cross-reactivity),[3],< 0.01%
APMA,sensitivity of DPP 3 to thiol inhibitors and chelating agents,[1],unusual sensitivity
Angiotensin-(1–7) [Ang-(1–7)],"hydrolysis rate, fold higher than Ang II",[2]; enriched brain medulla peptidase,12 fold
same,product of unlabeled Ang-(1–7) hydrolysis,"[5]; 100 ng human DPP 3, 60 min",a major peak corresponding to the metabolite Ang-(5–7)
same,kcat,[6],7.3 s⁻¹
CC[C@H](C)[C@H](NC(=O)[C@@H](CC(=O)NO)Cc1ccccc1)C(=O)N[C@@H](CC(C)C)C(=O)O [JMV-390],effect on Ang-(1–7) hydrolysis by DPP 3,[7],abolished; also recorded: attenuated the metabolism
same,direct conversion of ^125I-Ang I to ^125I-Ang-(1–7) by TOP,[8],inhibited the direct conversion
same,metabolism of unlabeled Ang-(1–7) to Ang-(5–7) in presence of inhibitor,"[5]; JMV-390 1 μM, 100 ng DPP 3, 60 min",attenuated the metabolism of Ang-(1–7)
same,effect on intracellular content of Ang-(1–7),"[9]; 20 nM JMV-390, 72 h",tended to augment the cellular levels of Ang-(1–7); also recorded: increased the intracellular content of Ang-(1–7)
same,increase in Ang-(1–7) content,"[9]; 20 nM JMV-390, 72 h, vs basal, n = 3, not statistically significant",68%
same,effect on intracellular content of Ang-(1–7),"[9]; 200 nM JMV-390, 72 h",significantly decreased the content of Ang-(1–7)
same,Ang-(1–7) content,"[9]; 200 nM JMV-390, 72 h, RIA, mean±SEM, n = 3, p<0.05 vs 20 nM JMV-390, basal 22 ±2",15 ±3 fmols/mg protein
same,increase in cellular levels of Ang-(1–7),"[9]; lower dose (20 nM) of JMV-390, not statistically significant",approximately 2 fold
same,peptidase activity,"[10]; 20 nM JMV-390, 72 h, n = 2",76 ± 13 fmol/min/mg
same,peptidase activity,"[10]; 200 nM JMV-390, 72 h, n = 3, p<0.05",17 ± 3 fmol/min/mg
same,reduction of peptidase (DPP 3) activity,"[10]; 200 nM JMV-390, 72 h, vs control, n = 3, p<0.05",85% and > 80%
same,effect on metabolism of ^125I-Ang-(1–7) to ^125I-Ang-(3-4),"[10]; 20 or 200 nM JMV-390, 72 h, 100,000 × g cytosolic fraction",significantly reduced the metabolism
same,IC50,[11],< 1 nM
same,effect on Ang-(1–7) hydrolysis by purified Ang-(1–7) peptidase,[12],abolished; also recorded: attenuated the metabolism
same,IC50,[13],~1 nM
c1cnc2c(c1)ccc1cccnc12 [ophenanthroline],sensitivity of DPP 3 to thiol inhibitors and chelating agents,[1],unusual sensitivity
